Measurements: patent US20100197585A1, “USE OF A RGD-PEPTIDE AND/OR PARATHYROID HORMONE (1-34) AS ANTI-HIV AGENT” (priority 2007, published 2010)
Where no end group is shown, it is not given here.

Legend:
HCMV strain AD169 = assay: HCMV plaque formation assay in MRC-5 cells; details: for inhibition of HCMV plaque formation as compared to the virus control: 10 micrograms per ml, 7-10 days
Human A549 cells = assay: Apoptosis prevention assay (C2 ceramide, Annexin-5); format: cell-based; details: 10 micrograms per ml, 30 min pretreatment
murine spleen cells = assay: Th1/Th2 cytokine profiling assay; format: cell-based, Balb/c mice; details: 10 micrograms per ml; Ovalbumin restimulation; 72 hours
HUVEC = assay: Endothelial tube formation assay; format: cell-based, human; details: 10 micrograms per ml, 20 hours
HIV-1IIIB = assay: HIV-1 antiviral assay (cytopathic effect) in CEM-SS cells; details: for reduction of the cytopathic effect (CPE) in HIV-1 infected CEM-SS cells: 10 micrograms per ml, HIV-1IIIB, 6 days post-infection, MTS; for antiviral activity of positive control compounds (HIV-1): CEM-SS cells
[1] = tested on: hepatitis B virus (HBV) ayw strain; assay: HBV experimental assay system (secreted HBV DNA, TaqMan PCR); format: cell-based; details: 10 micrograms per ml; HepG2-2.2.15; six days; HBV DNA by TaqMan PCR
Text: HepG2-2.2.15 is a stable cell line containing the hepatitis B virus (HBV) ayw strain genome (ATCC Cat. No. CRL-11997). Antiviral compounds blocking any late step of viral replication such as transcription, translation, pregenome encapsidation, reverse transcription, particle assembly and release can be identified and characterized using this cell line. In this assay, an active compound will reduce the production of secreted HBV from cells, measured by utilizing real time quantitative PCR (TaqMan) assay to directly and accurately measure HBV DNA copies.
HepG2-2.2.15 cells were plated in 96-well microtiter plates. After 16-24 hours the confluent monolayer of HepG2-2.2.15 cells was washed and the medium was replaced with complete medium containing test peptides—10 micrograms per ml—in duplicate. […] Six days following the initial administration of the peptides, the cell culture supernatants was collected, treated with pronase and DNAse and then used in a real-time quantitative TaqMan PCR assay. The PCR-amplified HBV DNA was detected in real-time by monitoring increases in fluorescence signals that result from the exonucleolytic degradation of a quenched fluorescence probe molecule that hybridizes to the amplified HBV DNA. […] Antiviral activity was calculated from the reduction in HBV DNA levels (% virus control). […]

Streptococcus pneumoniae = Streptococcus pneumoniae assay; details: 10 micrograms per ml; 5x10^5 CFU/mL
[2] = tested on: Primary Human endothelial cells (HUVEC); assay: Endothelial cell migration assay; format: cell-based; details: 10 micrograms per ml, 22 hours

| Compound | inhibition of HCMV plaque formation as compared to the virus control (HCMV strain AD169) | reduction of the ceramide-induced apoptosis on human lung cells (Human A549 cells) | change of the production of IL-5 in murine spleen cells (murine spleen cells) | decrease of the production of IFN-γ in murine spleen cells (murine spleen cells) | increase of the production of IL-2 in murine spleen cells (murine spleen cells) [%] | increase of the production of IL-4 in murine spleen cells (murine spleen cells) [%] | induction of the production of TNF-alpha in murine spleen cells (murine spleen cells) | inhibition of the tube formation of human endothelial cells (HUVEC) | reduction of the cytopathic effect (CPE) in HIV-1 infected CEM-SS cells (HIV-1IIIB) [%] | inhibition of HBV replication as compared to the virus control infection [1] [%] | inhibition of the growth of Streptococcus pneumoniae (Streptococcus pneumoniae) | inhibition of the migration of human endothelial cells [2] | antiviral activity of positive control compounds (HIV-1) (HIV-1IIIB) | antiviral activity of positive control compound (HCMV) (HCMV strain AD169; positive control) |
| --- | --- | --- | --- | --- | --- | --- | --- | --- | --- | --- | --- | --- | --- | --- |
| Gly-Arg-Gly-Asp-Asn-Pro-OH (GRGDNP-OH) [Peptide 1] | did not inhibit | did not reduce | did not significantly change | did not significantly change | 58.8 | 55.6 | 23.7% | no effect | 100 | 36.4 | 100% |  |  |  |
| CC[C@H](C)[C@H](NC(=O)[C@H](CCC(=O)O)NC(=O)[C@H](CO)NC(=O)[C@@H](NC(=O)[C@@H](N)CO)C(C)C)C(=O)N[C@@H](CCC(N)=O)C(=O)N[C@@H](CC(C)C)C(=O)N[C@@H](CCSC)C(=O)N[C@@H](Cc1cnc[nH]1)C(=O)N[C@@H](CC(N)=O)C(=O)N[C@@H](CC(C)C)C(=O)NCC(=O)N[C@@H](CCCCN)C(=O)N[C@@H](Cc1cnc[nH]1)C(=O)N[C@@H](CC(C)C)C(=O)N[C@@H](CC(N)=O)C(=O)N[C@@H](CO)C(=O)N[C@@H](CCSC)C(=O)N[C@@H](CCC(=O)O)C(=O)N[C@@H](CCCN=C(N)N)C(=O)N[C@H](C(=O)N[C@@H](CCC(=O)O)C(=O)N[C@@H](Cc1c[nH]c2ccccc12)C(=O)N[C@@H](CC(C)C)C(=O)N[C@@H](CCCN=C(N)N)C(=O)N[C@@H](CCCCN)C(=O)N[C@@H](CCCCN)C(=O)N[C@@H](CC(C)C)C(=O)N[C@@H](CCC(N)=O)C(=O)N[C@@H](CC(=O)O)C(=O)N[C@H](C(=O)N[C@@H](Cc1cnc[nH]1)C(=O)N[C@@H](CC(N)=O)C(=O)N[C@@H](Cc1ccccc1)C(=O)O)C(C)C)C(C)C [Peptide 2] | did not inhibit | 23.9% | did not significantly change | 31.4% | 80.4 | 35.2 | did not significantly change | 28% | 18.1 | 0 | no effect | no effect |  |  |
| Cc1cn([C@H]2C[C@H](N=[N+]=[N-])[C@@H](CO)O2)c(=O)[nH]c1=O [AZT, zidovudine, reference compound] |  |  |  |  |  |  |  |  |  |  |  |  | expected levels of antiviral activity |  |
| Nc1nc(O)c2ncn(COC(CO)CO)c2n1 [Ganciclovir, reference compound] |  |  |  |  |  |  |  |  |  |  |  |  |  | expected levels of antiviral activity |
| CC(C)(C)NC(=O)[C@@H]1CN(Cc2cccnc2)CCN1C[C@@H](O)C[C@@H](Cc1ccccc1)C(=O)N[C@H]1c2ccccc2C[C@H]1O [indinavir, reference compound] |  |  |  |  |  |  |  |  |  |  |  |  | expected levels of antiviral activity |  |
